Tests used:
normal chow-fed mice = experiment: Chronic oral fexaramine in normal chow-fed mice; assay type: in vivo
Experimental: FIGS. 3A-3D are line graphs and a bar graph showing the effects of fexaramine administration in normal chow-fed mice. The mice were treated with vehicle or fexaramine (100 mg/kg) via PO for 5 weeks. Data represent the mean±STD. Statistical analysis as performed with the Student's t test (*p<0.05, **p<0.01).
To investigate the physiological effects of intestinal FXR activation by fexaramine, mice were subjected to chronic fexaramine (100 mg/kg Fex) PO treatment for 5 weeks.

[1] = test system: FGF15 signaling and bile acid composition; experiment: FGF15 signaling, hepatic bile acid genes, serum bile acid composition and intestinal barrier in Fex-treated HFD mice; assay type: in vivo
Experimental: FIGS. 7A-7H show a comparative expression chart and bar charts illustrating that fexaramine increased endogenous FGF15 signaling and changes in BA composition. Mice were fed HFD for 14 weeks and then administered daily oral injections of vehicle or fexaramine (100 mg/kg) for 5 weeks with HFD. In the bar graphs, open bars represent vehicle treatment and solid bars represent fexaramine treatment, and data represent the mean±STD. Statistical analysis was performed with the Student's t test (*p<0.05, **p<0.01).
FIG. 8 is a bar graph showing hepatic Cyp7a1 levels determined by ELISA. Data represent the mean±SD. Statistical analysis was performed with the Student's t test. *p<0.05, **p<0.01.
Mice fed a HFD for 14 weeks were maintained on a HFD and treated with vehicle or fexaramine (100 mg/kg/day per os for 5 week). Serum bile acid composition was determined by mass spectrometry. N.D. not determined.
FXR activation has been reported to enhance mucosal defense gene expression and intestinal barrier function (Inagaki et al., Proc Natl Acad Sci USA 103:3920-3925, 2006; Gadaleta., et al. Gut 60:463-472, 2011).

FXR-null mice = experiment: Fexaramine in HFD-fed FXR-null mice; assay type: in vivo; conditions: 100 mg/kg 5 weeks
Experimental: (§1) Data represent the mean±SD. Statistical analysis was performed with the Student's t test. *p<0.05, **p<0.01.

[2] = test system: FXR target gene expression; experiment: FXR target gene expression (qPCR) in intestine, liver and kidney after acute PO or IP fexaramine; assay type: in vivo, mice
Experimental: FIGS. 1A-1C are a comparative expression chart and two bar charts, respectively, illustrating increased levels of FXR target gene expression in the intestine relative to expression in the liver and kidney. 8 week-old mice were treated with vehicle or fexaramine (100 mg/kg) via oral (PO) or intraperitoneal (IP) injection for three days (FIGS. 1A-1B) or five days (FIG. 1C).
FXR target gene expression was analyzed by qPCR. Gene expression was normalized against a vehicle-treated group.
as §1
FIG. 1F is a bar chart illustrating that orally delivered Fexaramine is intestinally-restricted. Mice received vehicle or Fexaramine (100 mg/kg) via per os (PO) or intraperitoneal (IP) injection for 5 days. Expression of the FXR target gene SHP after PO or IP injection in selected tissues is shown.
Upon exploration of the in vivo effects of fexaramine (Fex) administration, it was discovered that due to ineffectual absorption, oral (PO) and intraperitoneal (IP) drug delivery produced very different effects (FIGS. 1D and 1E).

DIO mice = experiment: Chronic oral fexaramine in diet-induced obesity (DIO) mice: weight, adiposity, serum parameters, GTT, ITT; assay type: in vivo; conditions: for glucose tolerance (glucose tolerance test) / insulin sensitivity (insulin tolerance test): PO 5 weeks
Experimental: FIGS. 2A-2G are graphs illustrating the reduction of diet-induced obesity and improvement in metabolic homeostasis with fexaramine. Mice were fed a high fat diet (HFD) for 14 weeks and then administered daily oral injections of vehicle (open boxes) or fexaramine (100 mg/kg) (solid boxes) for 5 weeks with HFD. Data represent the mean±STD. Statistical analysis was performed with the Student's t test (*p<0.05, **p<0.01).
FIG. 2A is a line chart illustrating changes in body weight of mice fed a high fat diet (HFD) for 14 weeks and then administered daily oral injections of vehicle (open boxes) or fexaramine (100 mg/kg) (solid boxes) for 5 weeks with HFD. n=8 per group.
(§2) FIG. 4A is a line graph showing the effects of fexaramine at various dosage levels on the body weight of mice fed a HFD for 14 weeks and then administered daily oral injections of vehicle or fexaramine (10, 50 or 100 mg/kg) for 5 weeks with a HFD. Data represent the mean±STD. Statistical analysis was performed with the Student's t test (*p<0.05, **p<0.01).
FIG. 4B is a set of digital images showing histological analysis of the ileum and colon following treatment with fexaramine or vehicle. Mice were fed on HFD for 14 weeks, and then administered daily oral injections of vehicle or fexaramine (100 mg/kg) for 5 weeks with HFD.
as §2, with “4C” for “4A”, “glucose tolerance tests in” for “the effects of fexaramine at various dosage levels on the body weight of”, “with” for “with a”
The physiological effects of fexaramine in established obesity (diet-induced obesity, DIO) models were evaluated. C57BL/6J mice were fed a diet of 60% fat for 14 weeks and then treated PO with vehicle or fexaramine (100 mg/kg) for 5 weeks. […] Analyses of serum metabolic parameters including leptin, insulin, cholesterol, and resistin reflected that fexaramine-mediated weight gain resistance is accompanied by improved endocrine and metabolic profiles (FIGS. 2D and 4D).
Obesity and its metabolic complications are associated with chronic low-grade inflammation, reflected by elevated serum levels of inflammatory cytokines. […] Therefore, glucose tolerance tests (GTTs) and insulin tolerance tests (ITTs) were performed to determine if glucose homeostasis was improved in fexaramine-treated DIO mice.

[3] = PO, 100 mg/kg, listed as fexaramine

COC(=O)/C=C/c1cccc(N(Cc2ccc(-c3ccc(N(C)C)cc3)cc2)C(=O)C2CCCCC2)c1 [Fex, fexaramine]
weight gain, basal metabolic activity and glucose tolerance (normal chow-fed mice; chow-fed mice, 100 mg/kg PO 5 weeks): indistinguishable from vehicle-treated mice | glucose homeostasis (normal chow-fed mice; normal chow-fed mice, range of doses): no effects observed | FGF15 expression in intestine (RNA-Seq) ([1]; 100 mg/kg PO 5 weeks): dramatically up-regulated | bile acid pool size (total serum BA levels) ([1]; 100 mg/kg PO 5 weeks): reducing the bile acid pool size | ratio of unconjugated to conjugated cholic acid ([1]; 100 mg/kg PO 5 weeks): remarkably increased | circulating FGF15 ([1]; 100 mg/kg PO 5 weeks, serum): increase in circulating FGF15 | expression of liver FXR target genes SHP and BSEP ([1]; chronic Fex treatment): not altered | hepatic CYP7A1 expression (mRNA and protein) ([1]; chronic Fex treatment): significantly repressed | hepatic expression of CYP8B1 and CYP27A1 ([1]; chronic Fex treatment): not affected | expression of mucosal defense genes Occludin and Muc2 ([1]; chronic Fex-treatment): increased expression | Fex-induced changes in gene expression and improvements in metabolic homeostasis (FXR-null mice): abrogated | induction of FXR target gene SHP in intestine ([2]; IP, 100 mg/kg for five days): robust induction | FXR target gene expression in liver, kidney and intestines ([2]; IP, 100 mg/kg, five days): increases FXR target gene expression in the liver and kidney, in addition to the intestines | induction of SHP in liver and kidney ([2]; PO versus IP, 100 mg/kg for five days): only seen in liver and kidney after IP treatment | FXR target gene expression (IBABP, OSTα, FGF15) in intestine ([2]; PO, 100 mg/kg): induced multiple FXR target genes in the intestine | FXR target gene expression in liver or kidney ([2]; PO, 100 mg/kg): failed to affect the expression of these genes in liver or kidney | induction of FXR target gene SHP in intestine ([2]; PO, 100 mg/kg for five days): robust induction | FXR target gene expression (IBABP, OSTα, FGF15) in intestine [2, 3]: substantially enhances FXR target gene expression in the intestine | FXR target gene expression in liver or kidney [2, 3]: not in the liver or kidney | intestinal toxicity (histology of ileum and colon) (DIO mice; DIO mice, 100 mg/kg PO 5 weeks): no signs of intestinal toxicity | overall fat mass (MRI) (DIO mice; DIO mice, 100 mg/kg PO 5 weeks): reduced overall fat mass | serum levels of inflammatory cytokines TNFα, IL-1α, IL-1β, IL-17 and MCP-1 (DIO mice; DIO mice, 100 mg/kg PO 5 weeks): markedly decreased | wet weights of subcutaneous (inguinal) and visceral (gonadal and mesenteric) adipose depots (DIO mice; DIO mice, 100 mg/kg PO 5 weeks): significant reductions | glucose, insulin, leptin, cholesterol and resistin levels (DIO mice; DIO mice, 100 mg/kg PO 5 weeks, serum after 8 hours fasting): reduced glucose, insulin, leptin, cholesterol, and resistin levels | prevention of weight gain, dose dependence (DIO mice; DIO mice, 10, 50 or 100 mg/kg PO 5 weeks): dose-dependent manner | weight gain (DIO mice; DIO mice, HFD 14 weeks then 100 mg/kg PO 5 weeks): prevented weight gain | glucose tolerance (glucose tolerance test) (DIO mice; DIO mice): dose-dependent improvements | insulin sensitivity (insulin tolerance test) (DIO mice; DIO mice): dose-dependent improvements | glucose tolerance (glucose tolerance test) (DIO mice; DIO mice, listed as fexaramine): improved glucose clearance | insulin sensitivity (insulin tolerance test) (DIO mice; DIO mice, listed as fexaramine): improved insulin sensitivity | weight gain at the highest dose (DIO mice; DIO mice, highest dose): almost completely abrogated

— US20150258052A1, “METHODS OF USING FEXARAMINE AND AGENTS THAT INCREASE SYMPATHETIC NERVOUS SYSTEM ACTIVITY TO PROMOTE BROWNING OF WHITE ADIPOSE TISSUE” (Salk Institute for Biological Studies, priority 2014, published 2015)
